# Values quoted from earlier work as cited in patent US9528030B1, “Cobalt inhibitor combination for improved dishing” (Cabot Microelectronics Corporation, priority 2015, dated 2016).
# Where two headings read alike, the source gives them in different places.
# Conditions: n-octanol-water
Azole Compound logP,Azole Compound logP (listed as benzotriazole),SMILES
−1.54,–,O=C(O)Cc1nnn[nH]1 [1H-Tetrazole-5-acetic acid]
−1.51,–,"Nc1n[nH]c(C(=O)O)n1 [3-Amino-1,2,4-triazole-5-carboxylic acid]"
+1.44,1.44,"c1ccc2[nH]nnc2c1 [BTA, benzotriazole]"

SMILES,Azole Compound logP,Azole Compound logP (listed as benzotriazole)
Nc1nnn[nH]1 [5-Aminotetrazole],−0.92,–
